Assay results taken from publication PMC7839693 (Chemistry (Weinheim an Der Bergstrasse, Germany), 2020).

What was measured:
human integrin αvβ3 = human integrin αvβ3 (Homo sapiens, UniProt P05106+P06756, DEL719-788); assay: Solid-phase receptor binding assay
E. coli β‐glucuronidase = E. coli β‐glucuronidase (Escherichia coli, UniProt P05804); assay: β-glucuronidase cleavage assay / drug release; type: in vitro ADME
M21 human melanoma cells = assay: In vitro cytotoxicity assay; type: cell-based; details: incubated alone (no β-glucuronidase)
[1] = Pilot experiment: stability of Cry-55gly under alkaline conditions; type: physicochemical; details: LiOH/H2O, 0 °C, 30 minutes, HPLC-MS
[2] = cited from earlier work
[3] = cited from earlier work; remark: listed apart in the source

SMILES: COc1ccc(C[C@H]2NC(=O)/C=C/C[C@@H]([C@H](C)[C@@H](OC(=O)CNC(=O)OCc3cc(NC(=O)CCCc4cn(CCC(=O)NCCCC[C@@H]5NC(=O)[C@@H](Cc6ccccc6)NC(=O)[C@H](CC(=O)O)NC(=O)CNC(=O)[C@H](CCCNC(=N)N)NC5=O)nn4)cc(O[C@@H]4O[C@H](C(=O)O)[C@@H](O)[C@H](O)[C@H]4O)c3)[C@@H](Cl)c3ccccc3)OC(=O)[C@H](CC(C)C)OC(=O)C(C)(C)CNC2=O)cc1Cl [compound 2, c(RGDfK)‐(m)‐GlcA‐linker‐Cry‐55gly]
- IC50 (human integrin αvβ3): 11.7 nM
- release of Cry-55gly after β-glucuronidase cleavage (E. coli β‐glucuronidase; E. coli β-glucuronidase 200 U mL-1, 37 °C, 60 min, HPLC and UPLC-MS): not released over time
- stability in the absence of enzyme (control) (E. coli β‐glucuronidase; control experiments without β-glucuronidase, buffer, 37 °C, HPLC): stable
- decreased activity relative to the free drug 3 (M21 human melanoma cells): 70 fold

SMILES: COc1ccc(C[C@H]2NC(=O)/C=C/C[C@@H]([C@H](C)[C@@H](OC(=O)CN)[C@@H](Cl)c3ccccc3)OC(=O)[C@H](CC(C)C)OC(=O)C(C)(C)CNC2=O)cc1Cl [compound 3, cryptophycin‐55 glycinate]
- conversion into the epoxide (cryptophycin-52, 4) [1]: 70%
- stability in mouse plasma [2]: excellent stability
- stability in human plasma [3]: excellent stability
